Assay [1] deals with Human cGAS amino acids 155-522 (Homo sapiens (Human), UniProt Q8N884). The experiment in a line: cGAS biochemical activity assay (ATP remaining, Kinase-Glo Max luminescence). Conditions: human cGAS 155-522, ATP remaining (Kinase-Glo Max); read-out: cGAS IC50.
For assay [2], the system named is cGAS/STING pathway in THP1 cells. The experiment in a line: THP1 cell-based cGAS/STING pathway activity assay (IRF-3-linked luciferase reporter). Conditions: Homo sapiens, THP-1. The method in brief:
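THP1 cells carrying an IRF-3-driven luciferase reporter were read across a range of compound concentrations, and IC50 values were derived from these concentration responses; the assay upper limit was 100 μM.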
In general terms: Reporter assays use an easily measured gene product as a stand-in for the process of interest.

The term IC50 denotes the concentration that inhibits the measured activity by half.

Each structure is given as a SMILES string.

Chain of Human cGAS amino acids 155-522 (Q8N884 157-522): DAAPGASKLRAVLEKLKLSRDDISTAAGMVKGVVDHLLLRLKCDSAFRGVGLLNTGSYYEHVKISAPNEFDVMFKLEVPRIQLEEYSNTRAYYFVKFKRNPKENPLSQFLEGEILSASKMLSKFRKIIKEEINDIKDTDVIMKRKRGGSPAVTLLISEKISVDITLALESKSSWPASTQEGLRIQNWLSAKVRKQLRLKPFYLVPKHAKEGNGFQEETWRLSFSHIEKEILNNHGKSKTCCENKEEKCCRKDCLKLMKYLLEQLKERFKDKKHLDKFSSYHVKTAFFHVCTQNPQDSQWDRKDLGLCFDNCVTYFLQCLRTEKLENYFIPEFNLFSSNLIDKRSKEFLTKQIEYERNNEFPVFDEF

For `COc1cccc2oc(-c3c(COCCO)[nH]c4c(-c5ccccc5)c(C#N)nn4c3=O)nc12` [Compound C1248, 5-((2-hydroxyethoxy)methyl)-6-(4-methoxybenzo[d]oxazol-2-yl)-7-oxo-3-phenyl-4,7-dihydropyrazolo[1,5-a]pyrimidine-2-carbonitrile], the figures for the IC50 in assay [1] and in assay [2] were less than 20 µM and more than 100 µM, respectively.

`Cc1[nH]c2c(-c3ccccc3)c(C(F)(F)F)nn2c(=O)c1-c1nc2c(o1)CCCC2` [Compound C1015, 5-methyl-3-phenyl-6-(4,5,6,7-tetrahydrobenzo[d]oxazol-2-yl)-2-(trifluoromethyl)pyrazolo[1,5-a]pyrimidin-7(4H)-one]: the IC50 is more than 250 µM in assay [1] and less than 20 µM in assay [2].

Take `CCc1cccc2oc(-c3c(C)[nH]c4c(-c5ccccc5)c(C#N)nn4c3=O)nc12` [Compound C1188, 6-(4-ethylbenzo[d]oxazol-2-yl)-5-methyl-7-oxo-3-phenyl-4,7-dihydropyrazolo[1,5-a]pyrimidine-2-carbonitrile]: the IC50 in assay [1] and in assay [2] was less than 20 µM each time.

As to `COc1ccccc1S(=O)(=O)NC(=O)c1c(C)[nH]c2c(-c3ccccc3)c(C(F)(F)F)nn2c1=O` [Compound A1121, N-((2-methoxyphenyl)sulfonyl)-5-methyl-7-oxo-3-phenyl-2-(trifluoromethyl)-4,7-dihydropyrazolo[1,5-a]pyrimidine-6-carboxamide], the IC50 in assay [1] was less than 20 µM; in assay [2], more than 100 µM.

For the compound `Cc1[nH]c2c(-c3ccccc3)c(C(F)(F)F)nn2c(=O)c1-c1nc2c(o1)CCCC2O` (stereo not shown) [Compound C1052, 6-(4-hydroxy-4,5,6,7-tetrahydrobenzo[d]oxazol-2-yl)-5-methyl-3-phenyl-2-(trifluoromethyl)pyrazolo[1,5-a]pyrimidin-7(4H)-one], the IC50 in assay [1] was less than 20 µM; in assay [2], 20 to 100 µM.

As for `Cc1[nH]c2c(-c3ccccc3)c(C(F)(F)F)nn2c(=O)c1C(=O)NS(=O)(=O)c1cccc(C#N)c1` [Compound A1128, N-((3-cyanophenyl)sulfonyl)-5-methyl-7-oxo-3-phenyl-2-(trifluoromethyl)-4,7-dihydropyrazolo[1,5-a]pyrimidine-6-carboxamide], the IC50 in assay [1] is less than 20 µM; in assay [2], more than 100 µM.

Consider `CC(=O)Nc1cccc2nc(-c3c(C)[nH]c4c(-c5ccccc5)c(C(F)(F)F)nn4c3=O)[nH]c12` [Compound C1009, N-(2-(5-methyl-7-oxo-3-phenyl-2-(trifluoromethyl)-4,7-dihydropyrazolo[1,5-a]pyrimidin-6-yl)-1H-benzo[d]imidazol-7-yl)acetamide], for which the IC50 in assay [1] was less than 20 µM; in assay [2] it was 20 to 100 µM.

For the compound `COc1ccc(C(C)=O)c2oc(-c3c(C)[nH]c4c(-c5ccccc5)c(C(F)(F)F)nn4c3=O)nc12` [Compound C1111, 6-(7-acetyl-4-methoxybenzo[d]oxazol-2-yl)-5-methyl-3-phenyl-2-(trifluoromethyl)pyrazolo[1,5-a]pyrimidin-7(4H)-one], the IC50 in assay [1] and in assay [2] was less than 20 µM each time.

With `COc1cccc2[nH]c(-c3c(C)[nH]c4c(-c5ccccc5)c(C(F)(F)F)nn4c3=O)nc12` [Compound C1018, 6-(4-methoxy-1H-benzo[d]imidazol-2-yl)-5-methyl-3-phenyl-2-(trifluoromethyl)pyrazolo[1,5-a]pyrimidin-7(4H)-one], the IC50 in assay [1] is less than 20 µM; in assay [2] it was more than 100 µM.

Turning to `COc1cc(C(C)O)cc2oc(-c3c(C)[nH]c4c(-c5ccccc5)c(C#N)nn4c3=O)nc12` (stereo not shown) [Compound C1240, 6-(6-(1-hydroxyethyl)-4-methoxybenzo[d]oxazol-2-yl)-5-methyl-7-oxo-3-phenyl-4,7-dihydropyrazolo[1,5-a]pyrimidine-2-carbonitrile], the IC50 in assay [1] and in assay [2] was less than 20 µM throughout.

Regarding `Cc1[nH]c2c(-c3ccccc3)c(C#N)nn2c(=O)c1-c1nc2cnccc2o1` [Compound C1275, 5-methyl-6-(oxazolo[4,5-c]pyridin-2-yl)-7-oxo-3-phenyl-4,7-dihydropyrazolo[1,5-a]pyrimidine-2-carbonitrile], the IC50 was less than 20 µM in assay [1] and more than 100 µM in assay [2].

On to `COc1cccc2oc(-c3c(C)[nH]c4c(-c5ccccc5)c(C#N)nn4c3=O)nc12` [Compound C1051, 6-(4-methoxybenzo[d]oxazol-2-yl)-5-methyl-7-oxo-3-phenyl-4,7-dihydropyrazolo[1,5-a]pyrimidine-2-carbonitrile], for which the values for the IC50 in assay [1] and in assay [2] were less than 20 µM and 20 to 100 µM, respectively.

In the case of `Cc1[nH]c2c(-c3ccccc3)c(C(F)(F)F)nn2c(=O)c1-c1nc2c(=O)n(C)ccc2o1` [Compound C1106, 5-methyl-2-(5-methyl-7-oxo-3-phenyl-2-(trifluoromethyl)-4,7-dihydropyrazolo[1,5-a]pyrimidin-6-yl)oxazolo[4,5-c]pyridin-4(5H)-one], the IC50 is less than 20 µM in assay [1] and 20 to 100 µM in assay [2].

Regarding `Cc1nnc(-c2c(C)[nH]c3c(-c4ccccc4)c(C(F)(F)F)nn3c2=O)[nH]1` [Compound C1020, 5-methyl-6-(5-methyl-4H-1,2,4-triazol-3-yl)-3-phenyl-2-(trifluoromethyl)pyrazolo[1,5-a]pyrimidin-7(4H)-one], the IC50 in assay [1] was 20 to 250 µM; in assay [2], more than 100 µM.

Regarding `COc1cc(C#N)cc2oc(-c3c(C)[nH]c4c(-c5ccccc5)c(C(F)(F)F)nn4c3=O)nc12` [Compound C1112, 4-methoxy-2-(5-methyl-7-oxo-3-phenyl-2-(trifluoromethyl)-4,7-dihydropyrazolo[1,5-a]pyrimidin-6-yl)benzo[d]oxazole-6-carbonitrile], the values for the IC50 in assay [1] and in assay [2] were 20 to 250 µM and more than 100 µM, respectively.

Consider `COc1ccc(NC(=O)c2c(C)[nH]c3c(-c4ccccc4)c(C(F)(F)F)nn3c2=O)nn1` [Compound A1110, N-(6-methoxypyridazin-3-yl)-5-methyl-7-oxo-3-phenyl-2-(trifluoromethyl)-4,7-dihydropyrazolo[1,5-a]pyrimidine-6-carboxamide], for which the IC50 is less than 20 µM in assay [1] and more than 100 µM in assay [2].

In the case of `COc1cccnc1NC(=O)c1c(C)[nH]c2c(-c3ccccc3)c(C(F)(F)F)nn2c1=O` [Compound A1100, N-(3-methoxypyridin-2-yl)-5-methyl-7-oxo-3-phenyl-2-(trifluoromethyl)-4,7-dihydropyrazolo[1,5-a]pyrimidine-6-carboxamide], the IC50 in assay [1] was less than 20 µM; in assay [2] it was 20 to 100 µM.

Take `COc1cccc2c(-c3c(C)[nH]c4c(-c5ccccc5)c(C(F)(F)F)nn4c3=O)n[nH]c12` [Compound C1026, 6-(7-methoxy-1H-indazol-3-yl)-5-methyl-3-phenyl-2-(trifluoromethyl)pyrazolo[1,5-a]pyrimidin-7(4H)-one]: the IC50 was 20 to 250 µM in assay [1] and less than 20 µM in assay [2].

On to `COc1cccc2oc(-c3c(N4CCCC(C(=O)O)C4)[nH]c4c(-c5ccccc5)c(C(F)(F)F)nn4c3=O)nc12` (stereo not shown) [Compound C1257, 1-(6-(4-methoxybenzo[d]oxazol-2-yl)-7-oxo-3-phenyl-2-(trifluoromethyl)-4,7-dihydropyrazolo[1,5-a]pyrimidin-5-yl)piperidine-3-carboxylic acid], for which the IC50 in assay [1] was less than 20 µM; in assay [2], more than 100 µM.

`Cc1[nH]c2c(-c3ccccc3)c(C(F)(F)F)nn2c(=O)c1C(=O)Nc1cccc2c1OCCC2` [Compound A1107, N-(chroman-8-yl)-5-methyl-7-oxo-3-phenyl-2-(trifluoromethyl)-4,7-dihydropyrazolo[1,5-a]pyrimidine-6-carboxamide]: the IC50 in assay [1] and in assay [2] was less than 20 µM in each case.

For the compound `COc1cccc2oc(-c3c(C(=O)NCCO)[nH]c4c(-c5ccccc5)c(C(F)(F)F)nn4c3=O)nc12` [Compound C1178, N-(2-hydroxyethyl)-6-(4-methoxybenzo[d]oxazol-2-yl)-7-oxo-3-phenyl-2-(trifluoromethyl)-4,7-dihydropyrazolo[1,5-a]pyrimidine-5-carboxamide], the concentration for half-maximal inhibition (IC50) in assay [1] and in assay [2] was less than 20 µM in each case.

For the compound `COc1cccc2oc(-c3c(C(=O)Nc4ccn(C)n4)[nH]c4c(-c5ccccc5)c(C(F)(F)F)nn4c3=O)nc12` [Compound C1256, 6-(4-methoxybenzo[d]oxazol-2-yl)-N-(1-methyl-1H-pyrazol-3-yl)-7-oxo-3-phenyl-2-(trifluoromethyl)-4,7-dihydropyrazolo[1,5-a]pyrimidine-5-carboxamide], the IC50 in assay [1] is less than 20 µM; in assay [2] it was more than 100 µM.

Turning to `Cc1[nH]c2c(-c3ccccc3)c(C(F)(F)F)nn2c(=O)c1C(=O)NS(=O)(=O)Cc1ccccc1` [Compound A1112, N-(benzylsulfonyl)-5-methyl-7-oxo-3-phenyl-2-(trifluoromethyl)-4,7-dihydropyrazolo[1,5-a]pyrimidine-6-carboxamide], the IC50 in assay [1] was less than 20 µM; in assay [2] it was 20 to 100 µM.

As to `COc1cccc2oc(-c3c(CS(C)(=O)=O)[nH]c4c(-c5ccccc5)c(C(F)(F)F)nn4c3=O)nc12` [Compound C1138, 6-(4-methoxybenzo[d]oxazol-2-yl)-5-((methylsulfonyl)methyl)-3-phenyl-2-(trifluoromethyl)pyrazolo[1,5-a]pyrimidin-7(4H)-one], the IC50 in assay [1] was less than 20 µM; in assay [2], more than 100 µM.

As for `COc1ccc2[nH]c(-c3c(C)[nH]c4c(-c5ccccc5)c(C(F)(F)F)nn4c3=O)nc2c1` [Compound C1016, 6-(5-methoxy-1H-benzo[d]imidazol-2-yl)-5-methyl-3-phenyl-2-(trifluoromethyl)pyrazolo[1,5-a]pyrimidin-7(4H)-one], the IC50 in assay [1] and in assay [2] was less than 20 µM each time.

Regarding `COc1cc(C(=N)N)cc2oc(-c3c(C)[nH]c4c(-c5ccccc5)c(C(F)(F)F)nn4c3=O)nc12` [Compound C1141, 4-methoxy-2-(5-methyl-7-oxo-3-phenyl-2-(trifluoromethyl)-4,7-dihydropyrazolo[1,5-a]pyrimidin-6-yl)benzo[d]oxazole-6-carboximidamide], the IC50 in assay [1] is less than 20 µM; in assay [2], more than 100 µM.
